How the values were obtained:
[1] = tested on: telomeric G-quadruplex; format: binding, human; conditions: for FRET-Q ΔTm(0.5 μM): telomeric G-quadruplex sequence, 0.5 μM compound, maximum error ± 1° C.
Protocol: (§1) 50 μL of annealed DNA and 50 μL of compound per well were put into 96-well plates and processed in a DNA Engine Opticon (MJ Research). […] The raw data were imported into Origin 7.0 (OriginLab Corp.) and the graphs smoothed using a 10-point running average and subsequently normalised. For the determination of the melting temperature, the first derivative of the smoothed melting curve was calculated.
(§2) The initial assessment of the DNA stabilisation ability of the compounds was done using FRET. Four different DNA sequences were used—a model for the human telomeric G-quadruplex, a self-complementary duplex DNA hairpin and two sequences that are present in the promoter region of the CKIT gene. A FRET competition experiment was also run in which affinity for the telomeric G-quadruplex sequence was evaluated in presence of increasing concentrations of duplex DNA. These experiments allowed us to assess the selectivity of the ligands between quadruplex and duplex DNA.

[2] = tested on: duplex DNA; experiment: FRET melting assay, duplex DNA; format: binding; conditions: duplex sequence, 0.5 μM compound, maximum error ± 1° C.
Protocol: 50 μL of annealed DNA and 50 μL of compound per well were put into 96-well plates and processed in a DNA Engine Opticon (MJ Research). […] The raw data were imported into Origin 7.0 (OriginLab Corp.) and the graphs smoothed using a 10-point running average and subsequently normalised. For the determination of the melting temperature, the first derivative of the smoothed melting curve was calculated. The difference between the melting temperature at 0.5 μM of the compound and the melting temperature for the blank (ΔTm(0.5 μM)) was used for comparison.

[3] = tested on: ckit1 G-quadruplex; experiment: FRET melting assay, ckit1 G-quadruplex; format: binding; conditions: ckit1 G-quadruplex sequence, 0.5 μM compound, maximum error ± 1° C.
Protocol: as §1, §2

[4] = tested on: ckit2 G-quadruplex; experiment: FRET melting assay, ckit2 G-quadruplex; format: binding; conditions: ckit2 G-quadruplex sequence, 0.5 μM compound, maximum error ± 1° C.
Protocol: as §1, §2

[5] = tested on: HT-29 cells (colon); experiment: SRB toxicity assay, HT-29; format: cell-based; conditions: Homo sapiens, 96 h exposure, HT-29D
Protocol: (§3) Human cancer cell lines, breast (MCF7), lung (A549), colon (HT-29), gastric (HGC-27) and normal human lung fibroblast lines (WI-38) were purchased from American Type Cell Culture (ATCC). The GIST882 line was a gift from Dr Jonathan Fletcher. All cell lines except HGC27 and WI38 were maintained in Dulbecco's Modified Eagles Media containing 10% foetal bovine serum (Invitrogen, UK), […] hydrocortisone (Acros Chemicals, Loughborough, UK), 2 mM L-glutamine (Invitrogen, Netherlands), and non-essential amino-acids (Invitrogen, Netherlands), and incubated at 37° C., 5% CO2. The WI38 and HGC27 lines were maintained in minimum essential medium, prepared as above. All cell lines were routinely passaged at a ratio of 1:6.
(§4) Short-term growth inhibition was measured using the SRB assay as described previously. Briefly, cells were seeded (4000 cells/wells) into the wells of 96 well-plates in appropriate medium and incubated overnight to allow the cells to attach. Subsequently cells were exposed to freshly-made solutions of drugs and incubated for a further 96 h. Following this the cells were fixed with ice cold trichlo-acetic acid (TCA) (10%, w/v) for 30 min and stained with 0.4% SRB dissolved in 1% acetic acid for 15 min. All incubations were carried out at room temperature.

[6] = tested on: HGC-27 cells (gastric); experiment: SRB toxicity assay, HGC-27; format: cell-based; conditions: Homo sapiens, HGC-27, 96 h
Protocol: as §3, §4

[7] = tested on: GIST882 cells; experiment: SRB toxicity assay, GIST882; format: cell-based; conditions: Homo sapiens, 96 h exposure
Protocol: as §3, §4

[8] = tested on: MCF7 cells; experiment: Senescence β-galactosidase staining in MCF7 cells; format: cell-based, human; conditions: at 70 nM
Protocol: Senescence detection and quantification experiments were carried out using a commercially available kit (Senescence β-galactosidase staining kit, Cell Signalling Technology, MA, USA). 1×10^5 cells were seeded in a 35 mm well of a 6-well plate (Nunc, Denmark) in 2 ml of medium and compound to test. The cells were incubated for 24 hours. The medium was then removed and the cells were washed with PBS (1×2 ml). The cells were fixed by treating them with 1 ml of fixative solution (2% formaldehyde and 2% glutaraldehyde in PBS) for 15 minutes at RT. The fixative solution was then removed and the wells washed with PBS (2×2 ml). Freshly prepared staining solution (a mixture of 930 μL of 40 mM citric acid/sodium phosphate (pH 6.0), 0.15 M NaCl and 2 mM MgCl2, 10 μL of 500 mM potassium ferrocyanide, 10 μL of 500 mM potassium ferricyanide and 50 μL of 20 mg/ml 5-bromo-4-chloro-3-indolyl-μD-galactopyranoside in DMF) (1 ml) was added and the cells were incubated overnight. The senescent cells, detected by their blue pigmentation, were quantified under a light microscope.
Senescence phenotype was investigated in MCF7 cells treated for 1 week with sub-cytotoxic concentrations of a selection of compounds.

[9] = molecular target: telomerase; experiment: Modified TRAP assay (telomerase inhibition); format: biochemical
Protocol: The TRAP assay was carried out in three steps with an initial primer elongation step by telomerase, a subsequent removal of the primer bound ligand and a final PCR amplification of the telomerase products. […] The PCR master mix was added to tubes containing freshly prepared compounds at various concentrations and to the negative control containing no drug. The initial elongation step was carried out for 10 min at 30° C., followed by a 94° C. for 5 min and a final maintenance of the mixture at 20° C. To purify the elongated product and to remove the bound ligands the QIAquick nucleotide purification kit (Qiagen) was used according to manufacturer's instructions. […] This was substituted with PCR-grade water in our experiments. The purified extended samples were then subject to PCR amplification. […] Fluorescence from drug samples were normalised against positive control containing protein only. All samples were corrected for background by subtracting the fluorescence reading of negative controls.

SMILES: CN(C)c1ccc(Nc2c3ccc(NC(=O)CCN4CCCC4)cc3nc3cc(NC(=O)CCN4CCCC4)ccc23)cc1 [BRACO19]
- concentration required to increase the melting temperature by 35° C. ([1]; G-quadruplex DNA, FRET): 2.5 µM

SMILES: CN(C)CCCN1C(=O)c2ccc3c4c(ccc(c24)C1=O)C(=O)N(CCCN(C)C)C3=O [Compound 32, reference compound]
- FRET-Q ΔTm(0.5 μM) [1]: 5.2 °C
- FRET-d ΔTm(0.5 μM) [2]: 2.7 °C
- FRET-ckit1 ΔTm(0.5 μM) [3]: 2.5 °C
- FRET-ckit2 ΔTm(0.5 μM) [4]: 7.75 °C

SMILES: CN(C)CCCNc1cc2c3c(c(NCCCN(C)C)cc4c3c1C(=O)N(CCCN(C)C)C4=O)C(=O)N(CCCN(C)C)C2=O [Compound 12]
- IC50 [5]: 63 nM
- IC50 [6]: 510 nM
- IC50 [7]: 1300 nM
- Senescence (% of cells) after 1 week (MCF7) [8]: 35.0 ± 3 (at 70 nM) % of cells
- FRET-Q ΔTm(0.5 μM) [1]: 33.2 °C
- FRET-d ΔTm(0.5 μM) [2]: 4.5 °C
- FRET-ckit1 ΔTm(0.5 μM) [3]: 29.75 °C
- FRET-ckit2 ΔTm(0.5 μM) [4]: 36.5 °C
- EC50 [9]: 25000 ± 2500 nM

SMILES: CN(C)CCN1C(=O)c2ccc3c4c(ccc(c24)C1=O)C(=O)N(CCN(C)C)C3=O [Compound 33, N,N′-bis(3-(dimethylamino)ethylamino)-1,4,5,8-naphthalenetetracarboxylic acid diimide, reference compound]
- FRET-Q ΔTm(0.5 μM) [1]: 3.2 °C
- FRET-d ΔTm(0.5 μM) [2]: 1 °C
- FRET-ckit1 ΔTm(0.5 μM) [3]: 1.25 °C
- FRET-ckit2 ΔTm(0.5 μM) [4]: 7.25 °C

SMILES: CN(C)CCCNc1cc2c3c(ccc4c3c1C(=O)N(CCCN(C)C)C4=O)C(=O)N(CCCN(C)C)C2=O [Compound 13]
- FRET-Q ΔTm(0.5 μM) [1]: 26.5 °C
- FRET-d ΔTm(0.5 μM) [2]: 12.5 °C
- FRET-ckit1 ΔTm(0.5 μM) [3]: 23.5 °C
- FRET-ckit2 ΔTm(0.5 μM) [4]: 29 °C
- EC50 [9]: 17000 ± 1100 nM

Source: patent US8796456B2, “Naphthalene diimide compounds” (University College London, priority 2007, dated 2014)
